Earlier results in patent US20220081482A1, “ANTICANCER COMPOSITIONS COMPRISING IMMUNE CHECKPOINT INHIBITORS” (priority 2018, published 2022).

Details: orally administered to rats

For `CN(C)C(=N)N=C(N)N` [metformin], the LD50 is given as 1,450 mg/kg.
